Measured values taken from ChEMBL document CHEMBL4152270, “Free radical rearrangement synthesis and microbiological evaluation of novel 2-sulfoether-4-quinolone scaffolds as potential antibacterial agents” (Eur J Med Chem, 2018).
≈ marks a conversion by molar mass, not a printed value. Calls of active or inactive are those of the source. The rule behind the calls is not given here.

Key:
[1] = system: Escherichia coli; assay: Antimicrobial activity against Escherichia coli after 18 to 20 hrs by micro broth dilution method; type: functional
[2] = system: Pseudomonas aeruginosa; assay: Antimicrobial activity against Pseudomonas aeruginosa after 18 to 20 hrs by micro broth dilution method; type: functional
[3] = system: Bacillus cereus; assay: Antimicrobial activity against Bacillus cereus after 18 to 20 hrs by micro broth dilution method; type: functional
[4] = system: Bacillus cereus; assay: Bactericidal activity against Bacillus cereus after 24 hrs by micro broth dilution method; type: functional
[5] = system: Staphylococcus aureus; assay: Antimicrobial activity against Staphylococcus aureus after 18 to 20 hrs by micro broth dilution method; type: functional
[6] = system: Staphylococcus aureus; assay: Antimicrobial activity against methicillin-resistant Staphylococcus aureus after 18 to 20 hrs by micro broth dilution method; type: functional
[7] = system: Staphylococcus aureus; assay: Bactericidal activity against Staphylococcus aureus after 24 hrs by micro broth dilution method; type: functional
[8] = system: Candida albicans; assay: Antimicrobial activity against Candida albicans after 18 to 20 hrs by micro broth dilution method; type: functional
[9] = system: Staphylococcus aureus; assay: Growth inhibition of Staphylococcus aureus at 1 to 4 times MIC after 24 hrs; type: functional, organism-based
[10] = system: Staphylococcus aureus; assay: Growth inhibition of Staphylococcus aureus at 0.25 to 0.5 times MIC after 24 hrs; type: functional, organism-based
[11] = target: DNA gyrase subunit A (Staphylococcus aureus, UniProt P20831); assay: Inhibition of Staphylococcus aureus DNA gyrase subunit A supercoiling activity using relaxed pBR322 DNA as substrate after 60 mins by agarose gel electrophoresis
[12] = system: Staphylococcus aureus; assay: Induction of cell death in Staphylococcus aureus ATCC 6538 at 0.8 uM after 24 hrs by transmission electron microscopy; type: functional, organism-based
[13] = system: Staphylococcus aureus; assay: Induction of cell wall damage in Staphylococcus aureus ATCC 6538 assessed as blemishes on cell wall at 0.8 uM after 24 hrs by transmission electron microscopy; type: functional, organism-based
[14] = system: Staphylococcus aureus; assay: Induction of morphological changes in Staphylococcus aureus ATCC 6538 assessed as shrinkage of cell morphology at 0.8 uM after 24 hrs by transmission electron microscopy; type: functional, organism-based
[15] = system: Staphylococcus aureus; assay: Induction of cell wall damage in Staphylococcus aureus ATCC 6538 assessed as emergence of solute loss at 0.8 uM after 24 hrs by transmission electron microscopy; type: functional, organism-based
[16] = system: Staphylococcus aureus; assay: Induction of morphological changes in Staphylococcus aureus ATCC 6538 assessed as cell wall swelling at 0.8 uM after 24 hrs by transmission electron microscopy; type: functional, organism-based

Chain of DNA gyrase subunit A (P20831 whole entry): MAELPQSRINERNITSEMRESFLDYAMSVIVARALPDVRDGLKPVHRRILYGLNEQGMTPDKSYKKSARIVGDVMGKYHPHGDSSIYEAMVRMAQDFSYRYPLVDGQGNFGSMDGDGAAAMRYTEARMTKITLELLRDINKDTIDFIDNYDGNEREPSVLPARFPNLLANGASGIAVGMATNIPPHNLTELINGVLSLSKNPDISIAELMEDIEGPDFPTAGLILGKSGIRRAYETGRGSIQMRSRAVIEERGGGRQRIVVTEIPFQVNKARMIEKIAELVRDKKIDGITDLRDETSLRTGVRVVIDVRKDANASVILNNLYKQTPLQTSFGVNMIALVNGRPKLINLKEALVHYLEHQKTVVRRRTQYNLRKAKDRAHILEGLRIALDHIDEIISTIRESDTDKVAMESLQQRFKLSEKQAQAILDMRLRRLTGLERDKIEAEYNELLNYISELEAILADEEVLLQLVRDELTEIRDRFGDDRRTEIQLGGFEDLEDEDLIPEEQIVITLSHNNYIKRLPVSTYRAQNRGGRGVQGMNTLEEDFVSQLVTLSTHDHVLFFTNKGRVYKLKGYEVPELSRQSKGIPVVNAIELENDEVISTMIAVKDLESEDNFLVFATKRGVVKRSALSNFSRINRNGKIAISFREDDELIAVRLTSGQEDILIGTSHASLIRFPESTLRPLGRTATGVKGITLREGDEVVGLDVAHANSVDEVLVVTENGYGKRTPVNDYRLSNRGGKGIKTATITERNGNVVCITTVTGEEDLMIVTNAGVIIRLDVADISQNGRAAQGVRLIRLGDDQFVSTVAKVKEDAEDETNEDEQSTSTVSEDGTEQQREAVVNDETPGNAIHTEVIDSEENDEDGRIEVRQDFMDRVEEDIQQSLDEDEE

Compound	MIC [1]	MIC [2]	MIC [3]	MBC [4]	MIC [5]	MIC [6]	MBC [7]	MIC [8]	growth inhibition (GI) [9]	growth inhibition (GI) [10]	IC50 [11]	Activity [12]	Activity [13]	Activity [14]	Activity [15]	Activity [16]
CSc1[nH]c2cc(C(F)(F)F)ccc2c(=O)c1C(C)=O	> 200 µM	> 200 µM	50 µM (≈ 15.1 µg/mL)	> 200 µM	3.12 µM (≈ 0.942 µg/mL)	> 200 µM	6.25 µM (≈ 1.88 µg/mL)	> 200 µM								
CSc1[nH]c2c(Cl)ccc(C(F)(F)F)c2c(=O)c1C(C)=O	> 200 µM	> 200 µM	1.6 µM (≈ 0.537 µg/mL)	12.5 µM (≈ 4.2 µg/mL)	0.8 µM (≈ 0.269 µg/mL)	> 200 µM	12.5 µM (≈ 4.2 µg/mL)	> 200 µM	Active	inactive						
CSc1[nH]c2c(Cl)cc([N+](=O)[O-])cc2c(=O)c1C(C)=O	> 200 µM	> 200 µM	6.25 µM (≈ 1.95 µg/mL)	> 200 µM	12.5 µM (≈ 3.91 µg/mL)	> 200 µM	> 200 µM	> 200 µM			80.3 µM					
CSc1[nH]c2ccc(C(F)(F)F)cc2c(=O)c1C(C)=O	> 200 µM	> 200 µM	50 µM (≈ 15.1 µg/mL)	> 200 µM	6.25 µM (≈ 1.88 µg/mL)	> 200 µM	25 µM (≈ 7.53 µg/mL)	> 200 µM								
CC1COc2c(N3CCN(C)CC3)c(F)cc3c(=O)c(C(=O)O)cn1c23 (stereo not drawn) [OFLOXACIN]	0.5 µM (≈ 0.181 µg/mL)	4 µM (≈ 1.45 µg/mL)	0.8 µM (≈ 0.289 µg/mL)	1.6 µM (≈ 0.578 µg/mL)	0.125 µM (≈ 0.0452 µg/mL)	100 µM (≈ 36.1 µg/mL)	0.5 µM (≈ 0.181 µg/mL)									
CCSc1[nH]c2ccc(C(F)(F)F)cc2c(=O)c1C(C)=O	> 200 µM	> 200 µM	25 µM (≈ 7.88 µg/mL)	50 µM (≈ 15.8 µg/mL)	6.25 µM (≈ 1.97 µg/mL)	> 200 µM	25 µM (≈ 7.88 µg/mL)	> 200 µM			16.2 µM					
C[C@@H]1[C@H](O)[C@@H](C)/C=C/C=C/C=C/C=C/C=C/C=C/C=C/[C@H](O[C@@H]2O[C@H](C)[C@@H](O)[C@H](N)[C@@H]2O)C[C@@H]2O[C@](O)(C[C@@H](O)C[C@@H](O)[C@H](O)CC[C@@H](O)C[C@@H](O)CC(=O)O[C@H]1C)C[C@H](O)[C@H]2C(=O)O [AMPHOTERICIN B]								0.2 µg/mL								
COc1cccc2c(=O)c(C(C)=O)c(SC)[nH]c12	> 200 µM	> 200 µM	> 200 µM		> 200 µM			> 200 µM								
CSc1[nH]c2ccc(C)cc2c(=O)c1C(C)=O	> 200 µM	> 200 µM	> 200 µM		> 200 µM			> 200 µM								
GENTAMICIN	0.125 µM	1 µM	1.6 µM	3.2 µM	0.8 µM	> 200 µM	3.2 µM									
CSc1[nH]c2c(C(F)(F)F)ccc(C(F)(F)F)c2c(=O)c1C(C)=O	> 200 µM	> 200 µM	1.6 µM (≈ 0.591 µg/mL)	6.25 µM (≈ 2.31 µg/mL)	0.8 µM (≈ 0.295 µg/mL)	> 200 µM	6.25 µM (≈ 2.31 µg/mL)	200 µM	Active	inactive	1.92 µM	Active	Active	Active	Active	Active
COc1ccc2[nH]c(SC)c(C(C)=O)c(=O)c2c1	> 200 µM	> 200 µM	> 200 µM		> 200 µM			> 200 µM								
CSc1[nH]c2ccc(OC(F)(F)F)cc2c(=O)c1C(C)=O	> 200 µM	> 200 µM	12.5 µM (≈ 3.97 µg/mL)	25 µM (≈ 7.93 µg/mL)	3.12 µM (≈ 0.992 µg/mL)	> 200 µM	25 µM (≈ 7.93 µg/mL)	> 200 µM								
CN(C)[C@@H]1C(O)=C(C(N)=O)C(=O)[C@@]2(O)C(O)=C3C(=O)c4c(O)cccc4[C@@](C)(O)[C@H]3C[C@@H]12 [TETRACYCLINE]	0.25 µM (≈ 0.111 µg/mL)	2 µM (≈ 0.889 µg/mL)	1.6 µM (≈ 0.711 µg/mL)	3.2 µM (≈ 1.42 µg/mL)	0.0325 µM (≈ 0.0144 µg/mL)	200 µM (≈ 88.9 µg/mL)	0.125 µM (≈ 0.0556 µg/mL)									
CSc1[nH]c2ccccc2c(=O)c1C(C)=O	> 200 µM	> 200 µM	> 200 µM		> 200 µM			> 200 µM								
CSc1[nH]c2cc(Br)ccc2c(=O)c1C(C)=O	> 200 µM	> 200 µM	200 µM (≈ 62.4 µg/mL)		12.5 µM (≈ 3.9 µg/mL)			> 200 µM								
CSc1[nH]c2c(Cl)cccc2c(=O)c1C(C)=O	> 200 µM	> 200 µM	> 200 µM		> 200 µM			> 200 µM								
CSc1[nH]c2c(Br)cccc2c(=O)c1C(C)=O	> 200 µM	> 200 µM	> 200 µM	> 200 µM	6.25 µM (≈ 1.95 µg/mL)	> 200 µM	25 µM (≈ 7.8 µg/mL)	> 200 µM								
CSc1[nH]c2c(C)cccc2c(=O)c1C(C)=O	> 200 µM	> 200 µM	> 200 µM		> 200 µM			> 200 µM								
CC(=O)c1c(O)[nH]c2ccc(C(F)(F)F)cc2c1=O	> 200 µM	> 200 µM	> 200 µM		> 200 µM			> 200 µM								
COc1ccc(C(F)(F)F)c2c(=O)c(C(C)=O)c(SC)[nH]c12	> 200 µM	> 200 µM	> 200 µM		> 200 µM			> 200 µM								
CSc1[nH]c2c(Cl)cc(C(F)(F)F)cc2c(=O)c1C(C)=O	> 200 µM	> 200 µM	1.6 µM (≈ 0.537 µg/mL)	6.25 µM (≈ 2.1 µg/mL)	0.8 µM (≈ 0.269 µg/mL)	> 200 µM	6.25 µM (≈ 2.1 µg/mL)	> 200 µM	Active	inactive	8.01 µM					
CSc1[nH]c2c(F)ccc(C(F)(F)F)c2c(=O)c1C(C)=O	> 200 µM	> 200 µM	3.12 µM (≈ 0.998 µg/mL)	6.25 µM (≈ 2 µg/mL)	0.8 µM (≈ 0.255 µg/mL)	> 200 µM	6.25 µM (≈ 2 µg/mL)	200 µM			2.47 µM					
CSc1[nH]c2cc(C(F)(F)F)c(C#N)cc2c(=O)c1C(C)=O	> 200 µM	> 200 µM	1.6 µM (≈ 0.522 µg/mL)	25 µM (≈ 8.16 µg/mL)	0.8 µM (≈ 0.261 µg/mL)	> 200 µM	25 µM (≈ 8.16 µg/mL)	200 µM	Active	inactive	6.47 µM					
OC(Cn1cncn1)(Cn1cncn1)c1ccc(F)cc1F [FLUCONAZOLE]								1 µg/mL								
CC(=O)c1c([S+](C)[O-])[nH]c2ccc(C(F)(F)F)cc2c1=O (stereo not drawn)	> 200 µM	> 200 µM	3.12 µM (≈ 0.992 µg/mL)	50 µM (≈ 15.9 µg/mL)	12.5 µM (≈ 3.97 µg/mL)	> 200 µM	50 µM (≈ 15.9 µg/mL)	> 200 µM								
CSc1[nH]c2ccc(Br)cc2c(=O)c1C(C)=O	> 200 µM	> 200 µM	200 µM (≈ 62.4 µg/mL)		25 µM (≈ 7.8 µg/mL)			> 200 µM								
